The source made the active and inactive calls. The calls are words filed in the database; no cut-off is given here.
Key:
[1] = test system: Plasmodium falciparum; assay: Antimalarial activity against Plasmodium falciparum W2; assay type: functional, organism-based
[2] = test system: Plasmodium falciparum; assay: Antimalarial activity against Plasmodium falciparum 3D7; assay type: functional, organism-based
[3] = Cmax in male Swiss mouse at 100 mg/kg, po by LC-MS/MS analysis; assay type: ADME, organism-based; conditions: in vivo
[4] = Cytotoxicity against human HepG2 cells; assay type: toxicity, cell-based
[5] = test system: Plasmodium yoelii; assay: Antimalarial activity against Plasmodium yoelii N67 infected in female Swiss mouse model assessed as mean survival time at 100 mg/kg, po measured on day 17 relative to control; assay type: functional; conditions: N67, 408 h, time 17 day
[6] = test system: Plasmodium falciparum; assay: Induction of morphological changes in asexual blood stage Plasmodium falciparum assessed as appearance of healthy rings at 1 uM incubated for 48 to 72 hrs by Geimsa-staining based light microscopic analysis; assay type: functional, organism-based; conditions: time 48-72 hrs
[7] = Stability of the compound in mouse plasma assessed as compound remaining measured after 120 mins by HPLC analysis relative to control; assay type: ADME, cell-free; conditions: read-out: Stability
[8] = Resistance index, ratio of IC50 for antimalarial activity against […] infected in human erythrocytes to IC50 for antimalarial activity against chloroquine-sensitive Plasmodium falciparum 3D7 infected in erythrocytes; assay type: functional
[9] = Clearance in male Swiss mouse at 100 mg/kg, po by LC-MS/MS analysis; assay type: ADME, organism-based; conditions: in vivo
[10] = test system: Plasmodium yoelii; assay: Antimalarial activity against Plasmodium yoelii N67 infected in female Swiss mouse model assessed as reduction in parasitic growth at 100 mg/kg, po administered for 3 days and measured on day 28 by Giemsa staining based analysis; assay type: functional, organism-based; conditions: time 28.0 day
[11] = AUC in male Swiss mouse at 100 mg/kg, po by LC-MS/MS analysis; assay type: ADME, organism-based; conditions: in vivo
[12] = MRT in male Swiss mouse at 100 mg/kg, po by LC-MS/MS analysis; assay type: ADME, organism-based; conditions: in vivo
[13] = Stability of the compound in simulated intestinal fluid at pH 6.8 assessed as compound remaining measured after 120 mins by HPLC analysis relative to control; assay type: physicochemical; conditions: read-out: Stability
[14] = test system: Plasmodium falciparum; assay: Antimalarial activity against chloroquine-sensitive Plasmodium falciparum 3D7 infected in human erythrocytes assessed as reduction in parasite growth incubated for 72 hrs by SYBR green dye fluorimetric assay; assay type: functional, organism-based; conditions: 3D7, Erythrocyte
[15] = test system: Plasmodium yoelii; assay: Antimalarial activity against Plasmodium yoelii N67 infected in female Swiss mouse model assessed as inhibition of parasitic growth at 100 mg/kg, po administered for 4 days and measured on day 28 by Giemsa staining based analysis; assay type: functional, organism-based; conditions: time 4.0 day
[16] = test system: Plasmodium yoelii; assay: Antimalarial activity against Plasmodium yoelii N67 infected in female Swiss mouse model assessed as inhibition of parasitic growth at 100 mg/kg, po measured on day 7 relative to control; assay type: functional; set-up: scale not given: the % may be the effect or the level left; conditions: time 7 day
[17] = Selectivity index, ratio of CC50 for cytotoxicity against human HepG2 cells to IC50 for antimalarial activity against chloroquine-sensitive Plasmodium falciparum 3D7 infected in human erythrocytes assessed as reduction in parasite growth incubated for 72 hrs by SYBR green dye fluorimetric assay; assay type: toxicity, cell-based; conditions: read-out: Ratio CC50/IC50
[18] = test system: Plasmodium yoelii; assay: Antimalarial activity against Plasmodium yoelii N67 infected in female Swiss mouse model assessed as mean survival time at 100 mg/kg, po measured on day 24 relative to control; assay type: functional; conditions: N67, 576 h, time 24 day
[19] = Stability of the compound in simulated physiological fluid at pH 7.4 assessed as compound remaining measured after 120 mins by HPLC analysis relative to control; assay type: physicochemical; conditions: read-out: Stability
[20] = Half life in male Swiss mouse at 100 mg/kg, po by LC-MS/MS analysis; assay type: ADME, organism-based; conditions: in vivo
[21] = test system: Plasmodium yoelii; assay: Antimalarial activity against Plasmodium yoelii N67 infected in female Swiss mouse model assessed as mean survival time at 100 mg/kg administered orally (reference value: 11 days); assay type: functional; conditions: route po
[22] = test system: Plasmodium falciparum; assay: Antimalarial activity against […] infected in human erythrocytes assessed as reduction in parasite growth incubated for 72 hrs by SYBR green dye fluorimetric assay; assay type: functional, organism-based; conditions: K1, Erythrocyte
[23] = test system: Plasmodium falciparum; assay: Induction of morphological changes in asexual blood stage Plasmodium falciparum assessed as appearance of fragmentation at 1 uM incubated for 24 hrs by Geimsa-staining based light microscopic analysis; assay type: functional, organism-based
[24] = test system: Plasmodium falciparum; assay: Induction of morphological changes in asexual blood stage Plasmodium falciparum assessed as appearance of compact structure at 1 uM incubated for 24 hrs by Geimsa-staining based light microscopic analysis; assay type: functional, organism-based
[25] = test system: Plasmodium yoelii; assay: Antimalarial activity against Plasmodium yoelii N67 infected in female Swiss mouse model assessed as inhibition of parasitic growth at 100 mg/kg, po measured on day 10 relative to control; assay type: functional; set-up: scale not given: the % may be the effect or the level left; conditions: time 10 day
[26] = test system: Plasmodium berghei; assay: Antimalarial activity against GFP-luciferase expressing liver stage Plasmodium berghei sporozoites infected in human HepG2 cells assessed as inhibition of parasitic growth by luminescence based analysis; assay type: functional, organism-based
[27] = Volume of distribution in male Swiss mouse at 100 mg/kg, po by LC-MS/MS analysis; assay type: ADME, organism-based; conditions: in vivo
[28] = test system: Plasmodium falciparum; assay: Antimalarial activity against […] infected in human erythrocytes assessed as inhibition of parasitic growth at 5 uM incubated for 72 hrs by SYBR green dye fluorimetric assay relative to control; assay type: functional, K1, Erythrocyte; set-up: scale not given: the % may be the effect or the level left
[29] = test system: Plasmodium falciparum; assay: Induction of morphological changes in asexual blood stage Plasmodium falciparum assessed as appearance of condensed cytoplasm at 1 uM incubated for 24 hrs by Geimsa-staining based light microscopic analysis; assay type: functional, organism-based
[30] = test system: Plasmodium falciparum; assay: Induction of morphological changes in asexual blood stage Plasmodium falciparum assessed as appearance of schizonts at 1 uM incubated for 48 to 72 hrs by Geimsa-staining based light microscopic analysis; assay type: functional, organism-based; conditions: time 48-72 hrs
[31] = Tmax in male Swiss mouse at 100 mg/kg, po by LC-MS/MS analysis; assay type: ADME, organism-based; conditions: in vivo
[32] = test system: Plasmodium falciparum; assay: Induction of morphological changes in asexual blood stage Plasmodium falciparum assessed as lack of prominent periphery in trophozoites at 1 uM incubated for 24 hrs by Geimsa-staining based light microscopic analysis; assay type: functional, organism-based

COc1cc(-c2nccc3c2[nH]c2ccccc23)cc(OC)c1OC
IC50 [1]: 0.51 µM

Clc1ccc(-n2cc(-c3cncc4ccccc34)nn2)cc1
IC50 [2]: 36.9 µM

O=C(NCc1cn(-c2cccc(C(F)(F)F)c2)nn1)c1cc2c([nH]c3ccccc32)c(-c2ccc(F)cc2)n1
Cmax [3]: 15.17 ng/mL
CC50 [4]: 195 µM
survival at 100 mg/kg [5]: 60%
Activity [6]: inactive
remaining at 2 h [7]: ≥ 60%
Ratio IC50 [8]: 0.48
CL [9]: 15.324 mL/min/kg
Activity [10]: Active
AUC [11]: 112 µg·h/mL
MRT [12]: 7.3 h
remaining at 2 h [13]: ≥ 60%
IC50 [14]: 0.84 µM
Activity [15]: Moderate_effect
Activity [16]: 42.55%
selectivity ratio at 72 h [17]: 232
survival at 100 mg/kg [18]: 20%
remaining at 2 h [19]: ≥ 60%
t1/2 [20]: 3.74 h
MST [21]: 17 days
IC50 [22]: 0.4 µM
Activity [23]: Active; Irreversible Structural Deformations Observed
Activity [24]: Active; Irreversible Structural Deformations Observed
Activity [25]: 35.93%
IC50 [26]: 5.88 µM
Vd [27]: 4.97207 L/kg
Activity [28]: 95.63%
Activity [29]: Active; Irreversible Structural Deformations Observed
Activity [30]: inactive
Tmax [31]: 4 h
Activity [32]: Active; Irreversible Structural Deformations Observed
